In patent US11498899B2, “Nitrone herbicides” (FMC Corporation, priority 2016, dated 2022):

Legend:
[1] = system: ryegrass, Italian (Italian ryegrass, Lolium multiflorum); experiment: Test A preemergence, visual injury rating 0-100; format: in vivo; conditions: for Ryegrass, Italian plant response rating: 125 g ai/ha, 0 to 100 scale (0 no effect, 100 complete control), approx. 10 days; for Ryegrass, Italian plant response rating (0 to 100 scale): 500 g ai/ha
[2] = system: foxtail, giant (giant foxtail, Setaria faberii); experiment: Test A preemergence, visual injury rating 0-100; format: in vivo; conditions: for Foxtail, Giant plant response rating: 125 g ai/ha, 0 to 100 scale (0 no effect, 100 complete control), approx. 10 days; for Foxtail, Giant plant response rating (0 to 100 scale): 500 g ai/ha
[3] = system: ragweed (common ragweed, Ambrosia elatior); experiment: Test A preemergence, visual injury rating 0-100; format: in vivo; conditions: for Ragweed plant response rating: 125 g ai/ha, 0 to 100 scale (0 no effect, 100 complete control), approx. 10 days; for Ragweed plant response rating (0 to 100 scale): 500 g ai/ha
[4] = system: kochia (Kochia scoparia); experiment: Test A preemergence, visual injury rating 0-100; format: in vivo; conditions: for Kochia plant response rating: 125 g ai/ha, 0 to 100 scale (0 no effect, 100 complete control), approx. 10 days; for Kochia plant response rating (0 to 100 scale): 500 g ai/ha
[5] = system: pigweed (Amaranthus retroflexus); experiment: Test A preemergence, visual injury rating 0-100; format: in vivo; conditions: for Pigweed plant response rating: 125 g ai/ha, 0 to 100 scale (0 no effect, 100 complete control), approx. 10 days; for Pigweed plant response rating (0 to 100 scale): 500 g ai/ha
[6] = system: ducksalad (Heteranthera limosa); experiment: Test B flooded paddy test, visual rating 0-100; conditions: Flood, 250 g ai/ha, applied to paddy water, rated after 13 to 15 days
[7] = system: rice (Oryza sativa); experiment: Test B flooded paddy test, visual rating 0-100 (0 no effect, 100 complete control); conditions: Flood, 250 g ai/ha, applied to paddy water, rated after 13 to 15 days
[8] = system: barnyardgrass (Echinochloa crus-galli); experiment: Test B flooded paddy test, visual rating 0-100; conditions: Flood, 250 g ai/ha, applied to paddy water, rated after 13 to 15 days
[9] = system: galium (catchweed bedstraw, Galium aparine); experiment: Test A postemergence, visual injury rating 0-100; format: in vivo; conditions: 0 to 100 scale
[10] = system: ryegrass, Italian (Italian ryegrass, Lolium multiflorum); experiment: Test A postemergence, visual injury rating 0-100; format: in vivo; conditions: 0 to 100 scale
[11] = system: blackgrass (Alopecurus myosuroides); experiment: Test A postemergence, visual injury rating 0-100; format: in vivo; conditions: 0 to 100 scale
[12] = system: foxtail, giant (giant foxtail, Setaria faberii); experiment: Test A postemergence, visual injury rating 0-100; format: in vivo; conditions: 0 to 100 scale
[13] = system: ragweed (common ragweed, Ambrosia elatior); experiment: Test A postemergence, visual injury rating 0-100; format: in vivo; conditions: 0 to 100 scale
[14] = system: corn (Zea mays); experiment: Test A postemergence, visual injury rating 0-100; format: in vivo; conditions: 0 to 100 scale
[15] = system: kochia (Kochia scoparia); experiment: Test A postemergence, visual injury rating 0-100; format: in vivo; conditions: 0 to 100 scale
[16] = system: pigweed (Amaranthus retroflexus); experiment: Test A postemergence, visual injury rating 0-100; format: in vivo; conditions: 0 to 100 scale
[17] = system: barnyardgrass (Echinochloa crus-galli); experiment: Test A postemergence, visual injury rating 0-100; format: in vivo; conditions: 0 to 100 scale
[18] = system: wheat (Triticum aestivum); experiment: Test A postemergence, visual injury rating 0-100; format: in vivo; conditions: 0 to 100 scale
[19] = system: barnyardgrass (Echinochloa crus-galli); experiment: Test A preemergence, visual injury rating 0-100 (0 no effect, 100 complete control); format: in vivo; conditions: for Barnyardgrass plant response rating: 125 g ai/ha, 0 to 100 scale (0 no effect, 100 complete control), approx. 10 days; for Barnyardgrass plant response rating (0 to 100 scale): 500 g ai/ha

| Structure (SMILES) | Ryegrass, Italian plant response rating [1] | Ryegrass, Italian plant response rating (0 to 100 scale) [1] | Foxtail, Giant plant response rating [2] | Foxtail, Giant plant response rating (0 to 100 scale) [2] | Kochia plant response rating [4] | Kochia plant response rating (0 to 100 scale) [4] | Pigweed plant response rating [5] | Pigweed plant response rating (0 to 100 scale) [5] | Ducksalad plant response rating (0 to 100 scale) [6] | Rice plant response rating (0 to 100 scale) [7] | Barnyardgrass plant response rating (0 to 100 scale) [8] | Galium plant response rating ([9]; 125 g ai/ha) | Galium plant response rating ([9]; 500 g ai/ha) | Ryegrass, Italian plant response rating ([10]; 125 g ai/ha) | Ryegrass, Italian plant response rating ([10]; 500 g ai/ha) | Blackgrass plant response rating ([11]; 125 g ai/ha) | Blackgrass plant response rating ([11]; 500 g ai/ha) | Foxtail, Giant plant response rating ([12]; 125 g ai/ha) | Foxtail, Giant plant response rating ([12]; 500 g ai/ha) | Ragweed plant response rating ([13]; 125 g ai/ha) | also measured |
| --- | --- | --- | --- | --- | --- | --- | --- | --- | --- | --- | --- | --- | --- | --- | --- | --- | --- | --- | --- | --- | --- |
| CC1=[N+]([O-])C(C(=O)Nc2cccc(F)c2F)C(c2cccc(Cl)c2C)C1 (racemic) [Compound 117] | 60 | 90 | 90 | 90 | 10 | 80 | 60 | 80 | 0 | 0 | 0 | 70 | 70 | 30 | 60 | 60 | 70 | 80 | 90 | 0 | Ragweed plant response rating [3]: 30; Ragweed plant response rating (0 to 100 scale) [3]: 90; Ragweed plant response rating ([13]; 500 g ai/ha): 60; Corn plant response rating ([14]; 125 g ai/ha): 30; Corn plant response rating ([14]; 500 g ai/ha): 70; Kochia plant response rating ([15]; 125 g ai/ha): 0; Kochia plant response rating ([15]; 500 g ai/ha): 60; Pigweed plant response rating ([16]; 125 g ai/ha): 0; Pigweed plant response rating ([16]; 500 g ai/ha): 70; Barnyardgrass plant response rating ([17]; 125 g ai/ha): 60; Barnyardgrass plant response rating ([17]; 500 g ai/ha): 80; Wheat plant response rating ([18]; 125 g ai/ha): 20; Wheat plant response rating ([18]; 500 g ai/ha): 80; Barnyardgrass plant response rating [19]: 90; Barnyardgrass plant response rating (0 to 100 scale) [19]: 90 |
| CC1=[N+]([O-])C(C(=O)Nc2cccc(F)c2F)C(c2cccc3c2CCC3)C1 (racemic) [Compound 118] | 90 | 100 | 90 | 100 | 20 | 80 | 40 | 80 | 90 | 15 | 95 | 50 | 50 | 50 | 90 | 50 | 70 | 50 | 90 | 0 | Ragweed plant response rating [3]: 70; Ragweed plant response rating (0 to 100 scale) [3]: 90; Ragweed plant response rating ([13]; 500 g ai/ha): 70; Corn plant response rating ([14]; 125 g ai/ha): 70; Corn plant response rating ([14]; 500 g ai/ha): 80; Kochia plant response rating ([15]; 125 g ai/ha): 50; Kochia plant response rating ([15]; 500 g ai/ha): 60; Pigweed plant response rating ([16]; 125 g ai/ha): 0; Pigweed plant response rating ([16]; 500 g ai/ha): 30; Barnyardgrass plant response rating ([17]; 125 g ai/ha): 60; Barnyardgrass plant response rating ([17]; 500 g ai/ha): 80; Wheat plant response rating ([18]; 125 g ai/ha): 40; Wheat plant response rating ([18]; 500 g ai/ha): 80; Barnyardgrass plant response rating [19]: 90; Barnyardgrass plant response rating (0 to 100 scale) [19]: 100 |
| CC1=[N+]([O-])C(C(=O)Nc2cccc(F)c2F)C(c2ccc(=O)n(Cc3ccc(Cl)cc3)c2)C1 (racemic) [Compound 119] | 0 | 0 | 0 | 0 | 0 | 0 | 0 | 0 | 0 | 0 | 0 | 0 | 0 | 10 | 20 | 0 | 0 | 0 | 0 | 0 | Ragweed plant response rating [3]: 0; Ragweed plant response rating ([13]; 500 g ai/ha): 0; Corn plant response rating ([14]; 125 g ai/ha): 0; Corn plant response rating ([14]; 500 g ai/ha): 0; Kochia plant response rating ([15]; 125 g ai/ha): 0; Kochia plant response rating ([15]; 500 g ai/ha): 0; Pigweed plant response rating ([16]; 125 g ai/ha): 0; Pigweed plant response rating ([16]; 500 g ai/ha): 0; Barnyardgrass plant response rating ([17]; 125 g ai/ha): 0; Barnyardgrass plant response rating ([17]; 500 g ai/ha): 0; Wheat plant response rating ([18]; 125 g ai/ha): 0; Wheat plant response rating ([18]; 500 g ai/ha): 0; Barnyardgrass plant response rating [19]: 0; Barnyardgrass plant response rating (0 to 100 scale) [19]: 0 |
| CCC1=[N+]([O-])C(C(=O)Nc2cccc(F)c2F)C(c2ccc(C(F)(F)F)cc2)C1 (racemic) [Compound 120] | 0 | 70 | 70 | 90 | 0 | 70 | 30 | 60 | 70 | 0 | 15 | 20 | 50 | 0 | 0 | 0 | 20 | 0 | 80 | 0 | Ragweed plant response rating (0 to 100 scale) [3]: 80; Ragweed plant response rating ([13]; 500 g ai/ha): 40; Corn plant response rating ([14]; 125 g ai/ha): 0; Corn plant response rating ([14]; 500 g ai/ha): 0; Kochia plant response rating ([15]; 125 g ai/ha): 0; Kochia plant response rating ([15]; 500 g ai/ha): 30; Pigweed plant response rating ([16]; 125 g ai/ha): 10; Pigweed plant response rating ([16]; 500 g ai/ha): 20; Barnyardgrass plant response rating ([17]; 125 g ai/ha): 20; Barnyardgrass plant response rating ([17]; 500 g ai/ha): 70; Wheat plant response rating ([18]; 125 g ai/ha): 0; Wheat plant response rating ([18]; 500 g ai/ha): 0; Barnyardgrass plant response rating [19]: 80; Barnyardgrass plant response rating (0 to 100 scale) [19]: 90 |
